Test results published in patent EP4782431A1 (Suzhou Merna Therapeutics Co. Ltd, priority 2023, dated 2025).

Assays:
HaCaT cells [1] = test: m6A methylation level of human keratinocytes (EpiQuik m6A RNA methylation quantification kit); format: cell-based; conditions: 50 nM drug alone, 24 hours, relative to control group 1 (DMSO)
Procedure: HaCaT cells were cultured in DMEM culture medium containing 10% fetal bovine serum, 100 U/mL penicillin, and 100 µg/mL streptomycin. Culture dishes were placed in an incubator containing 5% CO2 for culture at 37°C for 24 hours. An equal volume of DMSO was added in control group 1, 50 nM sorafenib, capecitabine, docetaxel, and osimertinib were respectively added in control groups A, B, C, and D, and 400 nM test compounds or nicotinamide were respectively added in sample groups A1, A2, B1, B2, C1, C2, D1, and D2 after the addition of 50 nM corresponding compounds. The cells were continuously cultured for 24 hours, washed with PBS, and then collected by high-speed centrifugation. Total RNA was extracted using Trizol reagent (Sigma Aldrich), and RNA m6A methylation of a sample was quantitatively detected using an EpiQuik m6A RNA methylation quantification kit. The concentrations of positive control samples for a standard curve were 0.01 ng/µl, 0.02 ng/µl, 0.05 ng/µl, 0.1 ng/µl, 0.2 ng/µl, and 0.5 ng/µl. The absorbance at 450 nm was read using a microplate reader (Tecan GENios). A quantitative calculation formula for m6A is as follows: m6A(ng) = (absorbanceofsamplewell−absorbanceofbackroundwell)/slope of standard curve [formula] m6A(%) = m6A(ng)/RNA amount of sample(ng)*100%. [formula]

HaCaT cells [2] = test: m6A methylation level of drug-treated HaCaT keratinocytes by nanopore sequencing; format: cell-based, human; conditions: 50 nM drug, 24 hours, vs blank control group
Procedure: 1*10^8 HaCaT cells were seeded in culture dishes, into which 50 nM drugs (including sorafenib, capecitabine, docetaxel, and osimertinib) were added, respectively. The cells were cultured in an incubator containing 5% CO2 at 37°C for 24 hours and washed with PBS after culture media were removed. Centrifugation was performed, the supernatant was discarded, and then, 400 µL of an RLT cell lysis buffer (QIAGEN, Cat.#79216) was added. A portion of samples were selected, into which 400 µL of 70% ethanol was added. The mixture was evenly stirred and then transferred to an RNeasy mini column, and RNA was extracted using an RNeasy mini kit (QIAGEN, Cat.#74104). 2 µL of an RNA sample was selected and dissolved in 98 µL of a 10 mM Tris-HCl buffer solution, and the absorbance at 260 nm was measured using a Nanodrop (Thermo Fisher Scientific) to determine the RNA concentration.
40 µg of an RNA sample was selected for enrichment of mRNA (PolyA+RNA) using an NEBNext Poly(A) mRNA magnetic isolation module (NEB, Cat.#E7490), and then, a 3' end of the above enriched mRNA (PolyA+RNA) molecule was ligated with reverse transcription adapter RTA using a direct RNA sequencing kit (Oxford Nanopore Technologies, Cat.#SQK-RNA002). A reverse transcription reaction was performed with the mRNA (PolyA+RNA) molecule as a template to synthesize a complementary strand, a terminal end of the reverse transcription adapter RTA was ligated with a sequencing adapter (RNA adapter) to form a final sequencing library, and quantitative detection was performed using a Qubit™ dsDNA HS assay kit (Invitrogen, Cat.#LOT2133187).
After quality inspection of the library, the prepared sequencing library was loaded onto a PromethION flow cell chip (Oxford Nanopore Technologies, Cat.#FLO-MIN106D), and placed in a PromethION sequencer (Oxford Nanopore Technologies) for sequencing by selecting a matched sequencing mode. Basecalling was performed on sequencing data through guppy, and m6A methylation analysis was performed on original fast5 data.

[3] = test system: chemotherapeutic drug-induced mouse model with hand-foot syndrome; test: chemotherapeutic drug-induced mouse model with hand-foot syndrome; format: in vivo, ICR mice; conditions: for swelling of the hind limb toes of the mice / epidermal layer and the stratum corneum in the skin tissues of the hind limb toes: modeling drug oral; for swelling of the hind limb toes of the mice: 14 days: capecitabine 200 mg/kg, docetaxel 25 mg/kg; for epidermal layer and the stratum corneum in the skin tissues of the hind limb toes: 14 days: capecitabine, docetaxel; for skin of the hind limb toes of the mice (appearance): modeling for 14 days: capecitabine 200 mg/kg, docetaxel 25 mg/kg oral gavage once daily
Excerpt: After adaptive feeding for 7 days, SPF-grade ICR mice (male, 5-6 weeks old, with a body weight of approximately 35 g) were randomly divided into groups, including a blank control group (6 mice), a capecitabine modeling group (6 mice), a docetaxel modeling group (6 mice), a capecitabine + compound of formula (I) group (6 mice), a docetaxel + compound of formula (I) group (6 mice), a capecitabine + nicotinamide group (6 mice), and a docetaxel + nicotinamide group (6 mice). The groups were respectively administered corresponding modeling drugs by oral gavage (capecitabine at 200 mg/kg and docetaxel at 25 mg/kg) once daily; and the blank control group was administered an equivalent volume of normal saline. After administration with the chemotherapeutic drugs for 2 weeks, the ointments containing the compound of formula (I) (at a compound content of 3%) used in Example 10 were respectively applied topically in the groups, or nicotinamide was orally administered (100 mg/kg) once daily continuously for 16 days.
Measurement of the degree of swelling of toes: The degree of swelling of hind limb toes of the mice was measured using a toe swelling tester (KW-7C, Nanjing Calvin Biotechnology Co., Ltd.) before administration with the modeling drugs, after administration with the modeling drugs for 2 weeks, and before sacrifice, respectively. Before measurement, ankle joints of hind feet of the mice were marked at same positions before administration, after administration for 2 weeks, and before sacrifice. During measurement, water was properly located at the same level as the marked positions, and numerical values were recorded after becoming stable.
Pathological staining of skin tissues: Skin tissue samples were selected from hind limb toes of the mice and placed in 4% paraformaldehyde for fixation at room temperature for 4 hours. Then, the tissues were taken out and rinsed with running water for several hours. The samples were subjected to dehydration treatment with 70%, 80%, and 90% ethanol solutions, followed by treatment with a mixed solution of equal amounts of absolute alcohol and xylene for 15 minutes, and then permeabilized twice with a xylene solution for 15 minutes each time until the samples became transparent. The samples were placed in a mixture of half xylene and half paraffin for soaking for 15 minutes, and then, paraffin I and paraffin II were added for wax penetration for one hour, respectively. After embedding with paraffin, the samples were sectioned, baked, dewaxed, and hydrated. Then, the hydrated sections were placed in a hematoxylin solution (ZSGB-BIO, article No. 23041001) for staining for 3 minutes, and a differentiation solution of hydrochloric acid in ethanol was added for differentiation for 15 seconds. After rinsing with water, a Scott bluing solution (Servicebio, article No. 20230801) was added for bluing for 15 seconds. After rinsing with running water, the sections were stained with an eosin solution (Solarbio, article No. 33535) for 3 minutes, rinsed with running water, dehydrated, permeabilized, sealed, and inspected under a microscope.
Immunohistochemical staining: After baking, dewaxing, and hydration, paraffin sections of skin tissues of hind limb toes of the mice were subjected to antigen retrieval using a 0.2 M citric acid buffer solution (containing 1.534 g of citric acid, 3.1 g of sodium citrate, and 100 mL of distilled water, pH 4.7). Endogenous […] was removed using 3% hydrogen peroxide (Shandong Annjet High-Tech Disinfection Technology Co., Ltd., article No. 20290902), and the sections were incubated at room temperature for 10 minutes and then fully rinsed with a PBS buffer solution (containing 8 g of NaCl, 0.2 g of KCl, 1.44 g of Na2HPO4, and 1 M HCl, pH 7.4). The sections were permeabilized with 0.5% Triton-X-100 (AmyJet Scientific, article No. A-CSH436-100 mL), respectively permeabilized with mouse anti-IL-1β and rabbit IL-8 for 10 minutes, and not permeabilized with rabbit anti-IL-6. […]

[4] = competitive suspension tests of crystal forms (XRPD); format: physicochemical; conditions: isopropanol, isopropyl acetate, and acetonitrile; 5°C, 25°C, 50°C, 3 days
Procedure: A 2θ scanning angle of the sample was 3°-40°, a scanning step size was 0.02°, and a scanning time per step was 0.12 s/step. An optical tube voltage and a current were 40 kV and 40 mA, respectively. During sample preparation, an appropriate amount of the sample was placed on a sample tray and flattened with a tool such as a glass slide to ensure a smooth and even surface.
Resulting suspensions were suspended at 5°C, 25°C, and 50°C for 3 days, respectively. The resulting suspensions were centrifuged, and solid portions were detected by XRPD.

CCCCCOC(=O)Nc1nc(=O)n([C@@H]2O[C@H](C)[C@@H](O)[C@H]2O)cc1F [Capecitabine, capecitabine]
m6A fold change (HaCaT cells [1]): 6.7 fold | m6A methylation levels of HaCaT cells higher than that of the control group (HaCaT cells [2]): 6.01 fold | cytokine IL-8 in the skin tissues of the hind limb toes of the mice ([3]; capecitabine oral 14 days, vs normal control group, p<0.05): significantly increased | swelling of the hind limb toes of the mice [3]: swelling of the hind limb toes of the mice was caused | epidermal layer and the stratum corneum in the skin tissues of the hind limb toes ([3]; vs normal control group): significantly thickened | skin of the hind limb toes of the mice (appearance) ([3]; vs normal control group): obvious erythema, rhagades, and blisters

NC(=O)[C@H]1CCCc2c1[nH]c1ccc(Cl)cc21 [Crystal form B, (S)-6-chloro-2,3,4,9-tetrahydro-1H-carbazole-carboxamide]
crystal form after competitive suspension slurrying [4]: converted into the crystal form F

CC(=O)O[C@@]12CO[C@@H]1C[C@H](O)[C@@]1(C)C(=O)[C@H](O)C3=C(C)[C@@H](OC(=O)[C@H](O)[C@@H](NC(=O)OC(C)(C)C)c4ccccc4)C[C@@](O)([C@@H](OC(=O)c4ccccc4)[C@H]21)C3(C)C [Docetaxel, docetaxel]
m6A fold change (HaCaT cells [1]): 5.6 fold | m6A methylation levels of HaCaT cells higher than that of the control group (HaCaT cells [2]): 3.97 fold | cytokine IL-6 in the skin tissues of the hind limb toes of the mice ([3]; docetaxel oral 14 days, vs normal control group, p<0.05): significantly increased | swelling of the hind limb toes of the mice [3]: swelling of the hind limb toes of the mice was caused | epidermal layer and the stratum corneum in the skin tissues of the hind limb toes ([3]; vs normal control group): significantly thickened | skin of the hind limb toes of the mice (appearance) ([3]; vs normal control group): obvious erythema, rhagades, and blisters
